Measured values taken from US5795907A, “Gastin and CCK receptor ligands” (James Black Foundation Limited, priority 1994, dated 1998).

Assays:
[1] = target: T1, CCKB receptor (Mus musculus, UniProt P56481); experiment: CCKB receptor radioligand binding assay in mouse cortical membranes ([125I]-CCK8S); settings: [125I]-CCK8S 200 pM, 150 min at 21±3°; for Ki: read-out: CCKB pKi (converted)
T1 construct: The cortex was dissected, weighed and homogenised in 40ml ice-cold buffer; tissue Charles River (supplier of the CD1 mice); host or cells: cerebral cortex membranes of male CD1 mice
T1 sequence (P56481 1-453): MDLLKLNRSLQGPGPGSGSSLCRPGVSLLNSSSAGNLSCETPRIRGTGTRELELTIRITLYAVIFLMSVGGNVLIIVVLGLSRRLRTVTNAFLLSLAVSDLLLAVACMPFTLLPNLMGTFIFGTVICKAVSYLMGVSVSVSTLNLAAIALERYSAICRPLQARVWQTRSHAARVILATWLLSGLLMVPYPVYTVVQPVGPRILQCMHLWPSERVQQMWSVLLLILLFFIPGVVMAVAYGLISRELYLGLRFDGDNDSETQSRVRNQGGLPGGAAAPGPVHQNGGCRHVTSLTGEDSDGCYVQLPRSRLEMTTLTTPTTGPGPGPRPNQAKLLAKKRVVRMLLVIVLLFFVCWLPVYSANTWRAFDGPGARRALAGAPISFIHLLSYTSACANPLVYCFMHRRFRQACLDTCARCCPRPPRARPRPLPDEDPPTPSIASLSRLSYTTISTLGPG
Method: The compounds of the examples were tested for binding at the CCKB receptor in mouse cortical membranes by means of a radioligand binding assay. The procedure was as follows:
The whole brains from male mice (CD1 22-25 g; Charles River) were removed and placed in ice-cold buffer (pH7.2 @ 21±3°) of the following composition (mM); 10 HEPES, 130 NaCl, 4.7 KCl, 5 MgCl2, 1 EDTA and containing 0.25g.^-1 bacitracin. The cortex was dissected, weighed and homogenised in 40ml ice-cold buffer using a Teflon-in-glass homogeniser. The homogenate was centrifuged at 39,800g for 20 min at 4°, the supernatant discarded and the pellet resuspended by homogenisation in fresh buffer. The homogenate was recentrifuged (39,800 g; 20 min @ 4°) and the final pellet was resuspended in HEPES buffer to give a tissue concentration of 2 mg.ml^-1 (original wet weight).
The membranes ([…]) were incubated for 150 min at 21±3° in a final volume of 0.5 ml with HEPES buffer containing [^125 I]-CCK8S (0.05 ml; 200 pM NEN 2200 Ci.mmol^-1) and competing compound. Total and non-specific binding of [^125 I]-CCK8S were defined using 0.05 ml of buffer and 0.05 ml of […] L-365,260, respectively. The assay was terminated by rapid filtration through pre-soaked Whatman GF/B filters using a Brandell Cell harvester. The filters were washed (3×3 ml) with ice-cold 50 mM Tris-HCl (pH7.4 @ 4° C.) and bound radioactivity determined by counting (1 min.) in a gamma-counter.

[2] = target: T2, CCKA (Cavia porcellus, UniProt Q63931); experiment: CCKA radioligand binding assay in guinea-pig pancreas membranes ([125I]-CCK8(S)); settings: PD134,308 present, 150 minutes at 21±3°; for Ki: read-out: CCKA pKi (converted)
T2 construct: The pancreatata were homogenised in 40 ml ice-cold HEPES buffer using a polytron; from tissue; host or cells: pancreas membranes of male Dunkin Hartley guinea-pigs
T2 sequence (Q63931 1-430): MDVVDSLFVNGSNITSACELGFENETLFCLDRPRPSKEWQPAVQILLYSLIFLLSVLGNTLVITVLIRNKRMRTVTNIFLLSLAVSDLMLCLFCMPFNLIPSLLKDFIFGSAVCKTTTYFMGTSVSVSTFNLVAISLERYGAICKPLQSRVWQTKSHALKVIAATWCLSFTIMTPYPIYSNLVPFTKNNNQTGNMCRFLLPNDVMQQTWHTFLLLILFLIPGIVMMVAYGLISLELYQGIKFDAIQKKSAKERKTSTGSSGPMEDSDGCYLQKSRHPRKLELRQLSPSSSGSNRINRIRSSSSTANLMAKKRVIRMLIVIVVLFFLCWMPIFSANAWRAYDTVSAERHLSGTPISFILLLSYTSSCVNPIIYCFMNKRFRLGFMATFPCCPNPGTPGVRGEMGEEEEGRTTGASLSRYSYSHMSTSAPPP
Method: The compounds of the examples were also tested in a CCKA as follows:
The pancreatata were removed from male guinea-pigs (200-300 g; Dunkin Hartley) and placed in ice-cold HEPES buffer (pH 7.2 @ 21 ±3). The pancreatata were homogenised in 40 ml ice-cold HEPES buffer using a polytron (Brinkmann, PT10, setting 10) 4×1 second. The homogenate was centrifuged at 39,800 g for 15 min at 4°. The supernatant was discarded and the pellet re-suspended using a Teflon-in-glass homogeniser in 20 volumes of fresh buffer and re-centrifuged as above.
The final pellet was re-suspended using a Teflon-in-glass homogeniser to a tissue concentration of 1 mg.ml^-1 (original wet weight), and filtered through 500 μm pore-size Nytex mesh.
The membranes (400 μl; containing 0.375 μM PD134,308) are incubated for 150 minutes at 21±3° in a final volume of 0.5 ml with HEPES buffer containing [^125 I]-CCK8 (S) (50 μl; […]) and competing compound. Total and non-specific binding of [^125 I]-CCK8 (S) are defined using 50 μl of buffer and 50 μl of 100 nM L-364,718 respectively. The assay is terminated by rapid filtration through pre-soaked Whatman GF/B filters using a Brandell Cell Harvester. The filters were washed (3×3 ml) with ice-cold 50 mM Tris HCl (pH 7.4 at 4°) and bound radioactivity is determined by counting (1 min) in a gamma counter.

Compound | Ki [1] | Ki [2] | CCKB pKi [1] | CCKA pKi [2]
5-(1S-(3,5-diethoxycarbonylphenylaminocarbonyl)-2-phenylethylaminocarbonyl)-6-(1-adamantanemethylaminocarbonyl)-indole and regioisomer with substituents at positions 5 and 6 reversed [Example 66] |  |  | 5.8 | 5.0
O=C(NCC12CC3CC(CC(C3)C1)C2)c1cc2nc[nH]c2cc1C(=O)N[C@@H](Cc1ccccc1)C(=O)Nc1ccc(F)cc1 [Example 68, 5-(1S-(4-fluorophenylaminocarbonyl)-2-phenylethylaminocarbonyl)-6-(1-adamantanemethylaminocarbonyl)-benzimidazole] | 1260 nM | 1260 nM |  | 
O=C(NCC12CC3CC(CC(C3)C1)C2)c1cc2nc[nH]c2cc1C(=O)N[C@@H](Cc1ccccc1F)C(=O)Nc1cc(-c2nn[nH]n2)cc(-c2nn[nH]n2)c1 [Example 84, 5-(1S-(3,5-ditetrazolylphenylaminocarbonyl)-2-(2-fluorophenyl)ethylaminocarbonyl)-6-(1-adamantanemethylaminocarbonyl)-benzimidazole] | 2.51 nM | 631 nM |  | 
O=C(NCC12CC3CC(CC(C3)C1)C2)c1cc(Cl)c(Cl)cc1C(=O)N1CCC[C@@H]1C(=O)O [Example 19, (2R-carboxypyrrolidino-carbonyl)-2-(1-adamantanemethylaminocarbonylmethyl)-4,5-dichlorobenzene] | 2000 nM | 5010 nM |  | 
Cn1ccc2cc(C(=O)N[C@@H](Cc3ccccc3)C(=O)Nc3cc(C(=O)O)cc(C(=O)O)c3)c(C(=O)NCC34CC5CC(CC(C5)C3)C4)cc21 [Example 36, 5-(1S-(3,5-dicarboxyphenylaminocarbonyl)-2-phenylethylaminocarbonyl)-6-(1-adamantanemethylaminocarbonyl)-N-methyl-indole] | 0.398 nM | 3160 nM |  | 
1/2-(1-adamantanemethylaminocarbonyl)-naphthoic acid Regioisomer 2 [Example 22] |  |  | 5.9 | 5.4
O=C(O)c1cccc2cccc(C(=O)NCC34CC5CC(CC(C5)C3)C4)c12 [Example 20, 1-(1-adamantanemethylaminocarbonyl)-8-naphthoic acid] | 10000 nM | 10000 nM |  | 
O=C(O)c1cc(NC(=O)[C@H](Cc2ccccc2)NC(=O)c2cc3[nH]c4ccccc4c3cc2C(=O)NCC23CC4CC(CC(C4)C2)C3)cc(C(=O)O)c1 [Example 52, 2-(1S-(3,5-dicarboxyphenylaminocarbonyl)-2-phenylethylaminocarbonyl)-3-(1-adamantanemethylaminocarbonyl)-carbazole] | 63.1 nM | 1260 nM |  | 

The remaining lines, values ahead:

Ki [1] | Ki [2] | CCKB pKi [1] | CCKA pKi [2] | Compound
3.98 nM | 200 nM |  |  | O=C(NCC12CC3CC(CC(C3)C1)C2)c1cc2cc[nH]c2cc1C(=O)N[C@@H](Cc1ccccc1F)C(=O)Nc1cc(-c2nn[nH]n2)cc(-c2nn[nH]n2)c1 [Example 98, 6-(1S-(3,5-ditetrazolylphenylaminocarbonyl)-2-(2-fluorophenyl)ethylaminocarbonyl)-5-(1-adamantanemethylaminocarbonyl)-indole]
1000 nM | 3160 nM |  |  | CCCCc1nc2cc(C(=O)NCC34CC5CC(CC(C5)C3)C4)c(C(=O)N[C@@H](Cc3ccccc3)C(=O)Nc3cc(C(=O)O)cc(C(=O)O)c3)cc2[nH]1 [Example 114, 5-(1S-(3,5-dicarboxyphenylaminocarbonyl)-2-phenylethylaminocarbonyl)-6-(1-adamantanemethylaminocarbonyl)-2-n-butylbenzimidazole]
 |  | 7.4 | 5.9 | O=C(NCC12CC3CC(CC(C3)C1)C2)c1cc2[nH]ccc2cc1C(=O)N[C@@H](Cc1ccccc1)C(=O)Nc1cccc(NS(=O)(=O)C(F)(F)F)c1 [Example 102, 5-(1S-(3-trifluoromethylsulphonylaminophenylaminocarbonyl)-2-phenylethylaminocarbonyl)-6-(1-adamantanemethylaminocarbonyl)-indole]
 |  | 6.2 | 5.6 | O=C(NCC12CC3CC(CC(C3)C1)C2)c1cc2nc[nH]c2cc1C(=O)N[C@@H](Cc1ccccc1)C(=O)Nc1cc(CO)cc(CO)c1 [Example 119, 5-(1S-(3,5-dihydroxymethylphenylaminocarbonyl)-2-phenylethylaminocarbonyl)-6-(1-adamantanemethylaminocarbonyl)-benzimidazole]
0.794 nM | 501 nM |  |  | O=C(NCC12CC3CC(CC(C3)C1)C2)c1cc2[nH]ccc2cc1C(=O)N[C@@H](Cc1ccccc1F)C(=O)Nc1cc(-c2nn[nH]n2)cc(-c2nn[nH]n2)c1 [Example 97, 5-(1S-(3,5-ditetrazolylphenylaminocarbonyl)-2-(2-fluorophenyl)ethylaminocarbonyl)-6-(1-adamantanemethylaminocarbonyl)-indole]
631 nM | 1000 nM |  |  | O=Cc1cc(C=O)cc(NC(=O)[C@H](Cc2ccccc2)NC(=O)c2cc3[nH]cnc3cc2C(=O)NCC23CC4CC(CC(C4)C2)C3)c1 [Example 120, 5-(1S-(3,5-hydrogencarbonylphenylaminocarbonyl)-2-phenylethylaminocarbonyl)-6-(1-adamantanemethylaminocarbonyl)-benzimidazole]
794 nM | 1580 nM |  |  | NC(=O)c1cc(NC(=O)[C@H](Cc2ccccc2)NC(=O)c2cc3[nH]cnc3cc2C(=O)NCC23CC4CC(CC(C4)C2)C3)cc(C(N)=O)c1 [Example 117, 5-(1S-(3,5-diaminocarbonylphenylaminocarbonyl)-2-phenylethylaminocarbonyl)-6-(1-adamantanemethylaminocarbonyl)-benzimidazole]
 |  | 6.7 | 5.0 | O=C(NCC12CC3CC(CC(C3)C1)C2)c1cc2[nH]ccc2cc1C(=O)N[C@@H](Cc1ccccc1)C(=O)Nc1cc(NC(=O)C(F)(F)F)cc(NC(=O)C(F)(F)F)c1 [Example 94, 5-(1S-(3,5-di-trifluoromethylcarbonylaminophenylamino-carbonyl)-2-phenylethylaminocarbonyl)-6-(1-adamantanemethylaminocarbonyl)-indole]
25.1 nM | 3980 nM |  |  | O=C(O)c1cc(NC(=O)[C@H](Cc2ccccc2)NC(=O)c2cc3[nH]cnc3cc2C(=O)NCc2ccc3ccccc3c2)cc(C(=O)O)c1 [Example 130, 5-(1S-(3,5-dicarboxyphenylaminocarbonyl)-2-phenylethylaminocarbonyl)-6-(2-naphthalenenemethylaminocarbonyl)-benzimidazole]
